# Results: patent publication US20080292627A1, “Compositions and Methods for Treating Mood and Anxiety Disorders” (THE BOARD OF TRUSTEES OF THE UNIVERSITY OF ILLINOIS, priority 2005, published 2008)
# Key:
# tubulin [1] = assay: SPOT membrane peptide array, tubulin binding to immobilized Gsα-derived peptides; parameters: species or system Ovine; settings: equimolar Gsα (150 nM), 37° C., 1 hour; SPOT membrane 1
# Description: Peptides were synthesized on to a cellulose membrane with PEG spacer (8×12 cm^2) (AIMS Scientific Products, Braunschweig, Germany) via the C-terminal amino acid in sequential spots by the use of a SPOT synthesis kit (SIGMA genosys, St. Louis, Mo.) (Frank, J. Immunol. Methods 267: 13-26, 2002; Frank, Tetrahedron 48: 9217-9232, 1992). The peptides corresponded to the amino acid sequence of Gsα (Genbank accession number P04895, homo sapiens, Gsα long form; SEQ ID NO: 15), which was divided into overlapping peptides (12 amino acids in length with 7 amino acid overlap between sequential peptide, 73 total spots). Spot 1 corresponded to amino acids 1-12 and Spot 2 corresponded to residues 6-17 in the primary amino acid sequence (SEQ ID NO: 15), etc. […]
# Ovine brain tubulin was prepared as previously described (Shelanski et al., Proc. Natl. Acad. Sci. USA. 70: 765-768, 1973). […] Purity of the prepared tubulin, as determined by SDS gel electrophoresis, was always greater than 95%. […] Protein concentrations were determined by Coomasie Blue binding (BioRad Protein Assay) with Bovine Serum Albumin as a standard (Bradford, Anal. Biochem. 72: 248-254, 1976). […]
# tubulin [2] = settings: cited from earlier work
substance,measurement,setting,value
Gsα: stimulatory G protein α subunit of adenylyl cyclase,effect of prior incubation of tubulin with Gsα on tubulin binding to the immobilized peptides,tubulin [1],prevented tubulin from binding
same,binding to tubulin (in words),tubulin [2],bind with a high affinity
same,Kd,tubulin [2]; read-out: KD of tubulin binding,~130 nM
